Measured values taken from patent publication EP0226508A1, “Indolo[3,2-c]quinoline derivatives, process for their preparation and their anti-tumour activity” (priority 1985, dated 1987).

What was measured:
[1] = test system: leucémie P 388; test: animal or person; format: in vivo, souris hybrides CDF 1; details: for Nombre de survivants: survivors at J 40; for Variation pondérale en g: in vivo, ip
Source text: (§1) L'activité antitumorale a été testée in vivo sur différentes tumeurs selon le protocole général suivant:
(§2) Toutes les souris mâles ou femelles sont inoculées par voie intrapéritonéale au jour Jo avec une quantité déterminée de cellules tumorales viables, variable selon la tumeur.
(§3) Elles sont ensuite réparties en différents lots. Chaque lot correspondant aux animaux traités par le produit à tester à une dose déterminée est composé de 10 souris. Dans ce cas, le produit à tester est dissous dans l'eau distillée et il est administré, pendant n jours (J₁-Jn) variables selon le protocole choisi, par voie intrapéritonéale à raison de 0,1 ml par 10 g de poids des souris traitées, les doses du produit administré étant précisées dans les tableaux ci-dessous.
(§4) Le lot "contrôle négatif", correspondant aux animaux qui ne sont pas traités par un produit, comprend 2 √N animaux, N étant égal au nombre total de souris traitées par un produit.
(§5) Enfin, tous les essais sont conduits parallèlement à l'étude d'un lot appelé "contrôle positif" de 10 animaux qui est traité par une molécule active, variable selon le protocole choisi, dans les mêmes conditions que les lots traités par le produit à tester, afin de valider l'essai.
(§6) L'activité antitumorale est évaluée en considé-rant l'augmentation du temps de survie des animaux traités par rapport à celui des animaux du lot "contrôle négatif" selon la formule : [formula]
(§7) Un composé est considéré comme étant actif lorsque la valeur du rapport T/C est égale ou supérieure à 125 % selon le protocole retenu. Il est toxique lorsque cette valeur est égale ou inférieure à 85 %. Le produit est également considéré comme toxique lorsque la variation pondérale, exprimée en grammes et calculée par la formule : Poids moyen du lot mesuré au jour 5 -poids moyen du même lot au jour 1 est égale ou inférieure à - 4 g.
a) Test de la leucémie P 388 (GERAN et al., Cancer Chemother, 1972, 2, 07-57).
Les essais sont effectués avec des souris hybrides CDF 1 inoculées par voie intrapéritonéale avec 10⁶ cellules leucémiques de la lignée P 388. Le composé à tester est administré pendant 5 jours (J1-J5). Le contrôle positif du test est le 5-fluorouracile qui est administré dans les mêmes conditions. Le nombre d'animaux survivants est évalué au jour J 40. Un composé est considéré comme étant actif lorsque le rapport T/C est supérieur à 127 %.

[2] = test system: lignée tumorale leucémie L 1210; test: In vitro cytotoxic activity on L 1210 leukemia cell culture (inhibition of cell proliferation); format: cell-based; details: Mus musculus, L1210; L 1210 culture in exponential growth, 37°C, after 48 hours of contact; read-out: ID 50 (the source's name)
Description: 1) In vitro : (PAOLETTI et al., Chem. Biol. Interaction, 1979, 25, 45-58).
L'activité cytotoxique des composés de l'invention a été évaluée par des essais in vitro. Ces essais consistent à ajouter des concentrations croissantes du composé à tester à une culture cellulaire de la lignée tumorale leucémie L 1210 en phase exponentielle de croissance. Les cellules sont incubées à 37°C dans une étuve à CO₂ et comptées toutes les 24 heures. Le calcul de l'ID₅₀ (concentration du produit exprimée en micromole 1⁻¹ qui inhibe la prolifération cellulaire à 50 p. 100) est effectuée après 48 heures de contact. Ainsi déterminées les ID₅₀ des composés de l'invention sont rassemblées dans le tableau ci-après.

[3] = test system: leucémie L 1210; test: In vivo antitumour activity, L 1210 leukemia test; design: species or system souris hybrides CDF₁; details: for Nombre de survivants: survivors at J 30
Source text: as §1, §2, §3, §4, §5, §6, §7
b) Test de la leucémie L 1210 (GERAN et al., Cancer Chemother, 1972, 2, 07-57).
Les essais sont effectués avec des souris hybrides CDF₁ inoculées avec 10⁵ cellules leucémiques de la lignée L 1210. Le composé à tester est administré pendant 5 jours (J₁-J₅).Le contrôle positif du test est le 5-fluorouracile administré dans les mêmes conditions. Le nombre d'animaux survivants est évalué au jour J 30. Un composé est considéré comme étant actif lorsque le rapport T/C est supérieur ou égal à 125 %.

[4] = test system: souris consanguines DBA₂ saines; test: Acute toxicity, single intraperitoneal injection in healthy mice, mortality at day 7; format: in vivo; details: single i.p. injection, 50 mg/kg
[5] = Mus musculus, P388, ip, P 388, CDF 1 mice, 5 mg/kg i.p. J1-J5, read-out: T/C %
[6] = Mus musculus, P388, ip, P 388, CDF 1 mice, 10 mg/kg i.p. J1-J5, read-out: T/C %
[7] = Mus musculus, P388, ip, P 388, CDF 1 mice, 20 mg/kg i.p. J1-J5, read-out: T/C %
[8] = Mus musculus, P388, ip, P 388, CDF 1 mice, 40 mg/kg i.p. J1-J5, read-out: T/C %
[9] = Mus musculus, P388, ip, P 388, CDF 1 mice, 2,5 mg/kg i.p. J1-J5, read-out: T/C %
[10] = P 388, CDF 1 mice, 5 mg/kg i.p. J1-J5
[11] = P 388, CDF 1 mice, 10 mg/kg i.p. J1-J5
[12] = P 388, CDF 1 mice, 20 mg/kg i.p. J1-J5
[13] = P 388, CDF 1 mice, 40 mg/kg i.p. J1-J5
[14] = P 388, CDF 1 mice, 2,5 mg/kg i.p. J1-J5
[15] = L 1210, CDF₁ mice, 5 mg/kg i.p. J1-J5
[16] = L 1210, CDF₁ mice, 10 mg/kg i.p. J1-J5
[17] = L 1210, CDF₁ mice, 20 mg/kg i.p. J1-J5
[18] = L 1210, CDF₁ mice, 2,5 mg/kg i.p. J1-J5

Compound | response vs control in vivo at 5 mg/kg [1, 5] [%] | response vs control in vivo at 10 mg/kg [1, 6] [%] | response vs control in vivo at 20 mg/kg [1, 7] [%] | response vs control in vivo at 40 mg/kg [1, 8] [%] | response vs control in vivo at 2.5 mg/kg [1, 9] [%] | Nombre de survivants [1, 10] | Nombre de survivants [1, 11] | Nombre de survivants [1, 12] | Nombre de survivants [1, 13] | Nombre de survivants [1, 14] | Variation pondérale en g ([1]; 5 mg/kg) | Variation pondérale en g ([1]; 10 mg/kg) | Variation pondérale en g ([1]; 20 mg/kg) | Variation pondérale en g ([1]; 40 mg/kg) | IC50 [2] [nM] | Jour médian de survie [3, 15] | Jour médian de survie [3, 16] | T/C % [3, 16] [%] | Nombre de survivants [3, 16] | mortalité évaluée au septième jour après l'administration [4] | further results
CN(C)CCCNc1nc2ccccc2c2c1c1cc(O)ccc1n2C [Dérivé N°4, (diméthylamino-3 propylamino)-6 hydroxy-8 méthyl-11 11-H indolo[3,2-c]quinoléine] | 133 | 136 | 137 | 65 | 129 | 0 | 0 | 0 | 0 | 0 | + 2,3 g | + 1,3 g | + 1,1 g | + 3,8 g | 40 | 13,0 | 11,25 | 137 | 0 |  | T/C % [3, 15]: 158%; Nombre de survivants [3, 15]: 0; Jour médian de survie [3, 17]: 10,1; T/C % [3, 17]: 123%; Nombre de survivants [3, 17]: 0; Jour médian de survie [3, 18]: 10,3; T/C % [3, 18]: 126%; Nombre de survivants [3, 18]: 0
CCN(CC)CCCNc1nc2ccccc2c2[nH]c3ccc(OC)cc3c12 [Dérivé N°5, (diéthylamino-3 propylamino)-6 méthoxy-8 11-H indolo[3,2-c]quinoléine] |  | 128 | 124 | 80 |  |  | 0 | 0 | 0 |  |  | - 0,6 g | + 0,8 g | - 2,1 g | 690 |  |  |  |  | aucune mortalité | 
Oc1ccc2[nH]c3c4ccccc4nc(NCCCN4CCOCC4)c3c2c1 [Dérivé N°15, hydroxy-8 (morpholino-3 propylamino)-6 11-H indolo[3,2-c]quinoléine] | 130 |  |  |  | 124 | 0 |  |  |  | 0 | - 1,1 g |  |  |  | 280 |  | 10,2 | 129 | 0 | aucune mortalité | 
Oc1ccc2[nH]c3c4ccccc4nc(NCCCN4CCCCC4)c3c2c1 [Dérivé N°16, hydroxy-8 (pipéridino-3 propylamino)-6 11-H indolo[3,2-c]quinoléine] | 133 | 130 | 77 |  | 140 |  | 0 | 0 |  | 0 | - 1,7 g | - 2,5 g | - 4,2 g |  | 180 | 10 | 10,4 | 131 | 0 | aucune mortalité | T/C % [3, 15]: 126%; Nombre de survivants [3, 15]: 0; Jour médian de survie [3, 17]: 10,2; T/C % [3, 17]: 129%; Nombre de survivants [3, 17]: 0
CCN(CC)CCCNc1nc2ccccc2c2c1c1cc(OC)ccc1n2C [Dérivé N°1, (diéthylamino-3 propylamino)-6 méthoxy-8 méthyl-11 11-H indolo[3,2-c]quinoléine] | 142 | 154 | 142 |  |  | 0 | 0 | 0 |  |  | - 0,4 g | - 0,7 g | - 1,2 g |  | 350 |  |  |  |  | aucune mortalité | 
CN(C)CCCNc1nc2ccccc2c2[nH]c3ccc(O)cc3c12 [Dérivé N°12, (diméthylamino-3 propylamino)-6 hydroxy-8 11-H indolo [3,2-c]quinoléine] | 155 | 141 |  |  | 141 | 0 | 0 |  |  | 0 | - 1,2 g | - 1,7 g |  |  | 80 |  |  |  |  | aucune mortalité | response vs control in vivo at 0.625 mg/kg ([1]; Mus musculus, P388, ip, P 388, CDF 1 mice, 0,625 mg/kg i.p. J1-J5, read-out: T/C %): 129%; response vs control in vivo at 1.25 mg/kg ([1]; Mus musculus, P388, ip, P 388, CDF 1 mice, 1,25 mg/kg i.p. J1-J5, read-out: T/C %): 130%; Nombre de survivants ([1]; P 388, CDF 1 mice, 0,625 mg/kg i.p. J1-J5): 0; Nombre de survivants ([1]; P 388, CDF 1 mice, 1,25 mg/kg i.p. J1-J5): 0
